Assays:
A2780 = assay: Cellular proliferation assay (Alamar blue), A2780; format: cell-based; conditions: Homo sapiens, A2780, A2780 cells; 10% FCS; 72 h with compound; Alamar blue 24 h; read-out: pIC50 A2780 (converted)
Summary of the method: (§1)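 Resazurin-based Alamar blue fluorescence (544/590 nm) measured viable cell number after 72 h compound exposure, following 24 h compound-free seeding, with 10% FCS, 37° C, 5% CO2. Dye incubation lasted 24 h for PC3 and A2780, 6 h for U87-MG, 4 h for HCT-116; results relative to untreated controls.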

H1299 = assay: Cellular proliferation assay (Alamar blue), H1299; format: cell-based; conditions: Homo sapiens, NCI-H1299, H1299 cells; 10% FCS; 72 h with compound; Alamar blue 4 h; read-out: pIC50 H1299 (converted)
Summary of the method: (§2)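 Viable cell number is determined by Alamar blue conversion after cells are treated with compound for 72 hours, following 24 hours of growth without compound in 10% FCS. The effect is calculated against control cells.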

PLK4 (h) = target: T1, PLK4 (h) (Homo sapiens, UniProt O00444); assay: PLK-4 human kinase scintillation proximity assay (SPA); format: biochemical; conditions: 1 μM ATP, 60 minutes at r.t., read-out: PLK4 pIC50 (converted)
T1 sequence (O00444 1-970): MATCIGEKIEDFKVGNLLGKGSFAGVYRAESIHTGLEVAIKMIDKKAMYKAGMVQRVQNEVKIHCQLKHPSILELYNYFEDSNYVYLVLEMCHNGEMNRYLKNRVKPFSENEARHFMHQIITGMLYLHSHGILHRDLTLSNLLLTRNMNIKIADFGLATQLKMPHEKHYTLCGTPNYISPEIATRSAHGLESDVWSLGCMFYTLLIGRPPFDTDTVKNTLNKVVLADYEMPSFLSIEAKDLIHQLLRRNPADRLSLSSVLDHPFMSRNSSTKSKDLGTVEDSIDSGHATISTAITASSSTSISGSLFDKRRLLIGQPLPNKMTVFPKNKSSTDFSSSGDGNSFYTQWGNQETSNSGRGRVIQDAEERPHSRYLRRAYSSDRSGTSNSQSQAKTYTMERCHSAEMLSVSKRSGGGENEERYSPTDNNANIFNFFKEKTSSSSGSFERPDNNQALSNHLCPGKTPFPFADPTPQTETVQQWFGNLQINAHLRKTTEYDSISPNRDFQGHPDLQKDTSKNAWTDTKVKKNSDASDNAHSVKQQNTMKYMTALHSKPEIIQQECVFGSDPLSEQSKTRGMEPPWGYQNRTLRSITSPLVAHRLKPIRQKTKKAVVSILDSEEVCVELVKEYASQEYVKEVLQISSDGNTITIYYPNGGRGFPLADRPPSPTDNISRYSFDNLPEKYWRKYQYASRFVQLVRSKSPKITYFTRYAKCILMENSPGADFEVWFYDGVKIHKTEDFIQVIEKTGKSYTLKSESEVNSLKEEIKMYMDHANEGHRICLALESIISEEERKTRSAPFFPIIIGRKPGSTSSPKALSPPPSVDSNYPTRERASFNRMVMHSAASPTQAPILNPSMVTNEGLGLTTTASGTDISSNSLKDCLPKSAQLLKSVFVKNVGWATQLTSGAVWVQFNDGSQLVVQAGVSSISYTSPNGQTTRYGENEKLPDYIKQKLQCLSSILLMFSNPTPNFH
Summary of the method: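 Scintillation proximity read-out: EDTA-stopped reactions were captured on streptavidin SPA beads after PLK4 (19 μg/ml) had phosphorylated 10 μM biotin-peptide for 60 min at room temperature, using 1 μM ATP spiked with 2 nM 33P-ATP in pH 8.0 HEPES buffer.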

HCT-116 = assay: Cellular proliferation assay (Alamar blue), HCT-116; format: cell-based; conditions: Homo sapiens; HCT-116 cells; 10% FCS; 72 h with compound; Alamar blue 4 h; read-out: pIC50 HCT-116 (converted)
Summary of the method: as §1

MDA-MB-231 = assay: Cellular proliferation assay (Alamar blue), MDA-MB-231; format: cell-based; conditions: Homo sapiens, MDA-MB-231, MDA-MB-231 cells; 10% FCS; 72 h with compound; Alamar blue 24 h; read-out: pIC50 MDA/MB231 (converted)
Summary of the method: as §2

U87-MG = assay: Cellular proliferation assay (Alamar blue), U87-MG; format: cell-based; conditions: Homo sapiens, U-87 MG; U87-MG cells; 10% FCS; 72 h with compound; Alamar blue 6 h; read-out: pIC50 U87MG (converted)
Summary of the method: as §1

PC3 = assay: Cellular proliferation assay (Alamar blue), PC3; format: cell-based; conditions: Homo sapiens, PC-3, PC-3 cells; 10% FCS; 72 h with compound; Alamar blue 24 h; read-out: pIC50 PC-3 (converted)
Summary of the method: as §1

| SMILES | IC50 (A2780) [µM] | IC50 (H1299) [µM] | IC50 (PLK4 (h)) [µM] | IC50 (HCT-116) [µM] | IC50 (MDA-MB-231) [µM] | IC50 (U87-MG) [µM] | IC50 (PC3) [µM] |
| --- | --- | --- | --- | --- | --- | --- | --- |
| O=C1CCCCOc2cccc(c2)Nc2ncnc3[nH]cc(c23)CN2CCN1CC2 [Compound 86] | > 10 | > 10 | > 10 | > 10 | > 10 | > 10 | > 10 |
| COc1cc2cc(c1OC)OCCCCC(=O)N(C)CCN(C)Cc1c[nH]c3ncnc(c13)N2 [Compound 87] | > 10 | > 10 | > 10 | > 10 | > 10 | > 10 | > 10 |
| COc1ccc2cc1OCC(=O)NCC1CN(Cc3c[nH]c4ncnc(c34)N2)C1 [Compound 88] | > 10 | > 10 | 0.501 | 5.01 | > 10 | 10 | > 10 |
| CN1CCN(C)C(=O)COc2cc(ccc2Cl)Nc2ncnc3[nH]cc(c23)C1 [Compound 98] | > 10 | > 10 | 0.1 | 5.01 | > 10 | 6.31 | > 10 |
| COc1ccc2cc1OCCCCC(=O)N1CCN(CC1)Cc1c[nH]c3ncnc(c13)N2 [Compound 103] | > 10 | > 10 | 0.631 | > 10 | > 10 | > 10 | > 10 |
| O=C1CCCCOc2cc(ccc2Cl)Nc2ncnc3[nH]cc(c23)CN2CCN1CC2 [Compound 104] | > 10 | > 10 | 2 | > 10 | > 10 | > 10 | > 10 |
| COc1ccc2cc1OCCCC(=O)N1CCN(CC1)Cc1c[nH]c3ncnc(c13)N2 [Compound 105] | > 10 | > 10 | 1 | > 10 | > 10 | > 10 | > 10 |
| O=C1CCCOc2cc(ccc2Cl)Nc2ncnc3[nH]cc(c23)CN2CCN1CC2 [Compound 106] | > 10 | > 10 | 6.31 | > 10 | > 10 | > 10 | > 10 |
| O=C1CCCOc2cccc(c2)Nc2ncnc3[nH]cc(c23)CN2CCN1CC2 [Compound 107] | > 10 | > 10 | 6.31 | > 10 | > 10 | > 10 | > 10 |
| COc1cc2cc(c1OC)OCCCCC(=O)N1CCN(CC1)Cc1c[nH]c3ncnc(c13)N2 [Compound 111] | > 10 | > 10 | > 10 | > 10 | > 10 | > 10 | > 10 |
| COc1cc2cc(c1OC)OCCCC(=O)N1CCN(CC1)Cc1c[nH]c3ncnc(c13)N2 [Compound 112] | > 10 | > 10 | > 10 | > 10 | > 10 | > 10 | > 10 |
| O=C1CCCCOc2cc(cc(C(F)(F)F)c2)Nc2ncnc3[nH]cc(c23)CN2CCN1CC2 [Compound 113] | > 10 | > 10 | > 10 | > 10 | > 10 | > 10 | > 10 |
| CN1CCCN(C)C(=O)COc2cc(ccc2NC(=O)Nc2ccc(Cl)cc2)Nc2ncnc3[nH]cc(c23)C1 [Compound 116] | 0.0794 | 0.631 | 0.0316 | 0.2 | 5.01 | 3.98 | 6.31 |
| O=C1CCCCOc2cc(ccc2N2CCOCC2)Nc2ncnc3[nH]cc(c23)CN2CCN1CC2 [Compound 121] | > 10 | > 10 | 6.31 | > 10 | > 10 | > 10 | > 10 |
| COc1cc2cc(c1OC)CN(C(C)C)CC(=O)N(C)CCCc1c[nH]c3ncnc(c13)N2 [Compound 123] | > 10 | > 10 | > 10 | > 10 | > 10 | > 10 | > 10 |
| COCCN1CC(=O)N(C)CCCc2c[nH]c3ncnc(c23)Nc2cc(c(OC)c(OC)c2)C1 [Compound 124] | > 10 | > 10 | > 10 | > 10 | > 10 | > 10 | > 10 |

Other lines, results leading:

| IC50 (A2780) [µM] | IC50 (H1299) [µM] | IC50 (PLK4 (h)) [µM] | IC50 (HCT-116) [µM] | IC50 (MDA-MB-231) [µM] | IC50 (U87-MG) [µM] | IC50 (PC3) [µM] | SMILES |
| --- | --- | --- | --- | --- | --- | --- | --- |
| 0.398 | 1.58 | 0.0251 | 0.631 | 6.31 | 3.16 | 6.31 | CN1CCCN(C)C(=O)COc2cc(ccc2OCC(=O)NC2CCCCC2)Nc2ncnc3[nH]cc(c23)C1 [Compound 118] |
| 0.316 | 1 | 0.0251 | 0.316 | 2 | 1.58 | 2.51 | COCCOc1ccc2cc1OCC(=O)N(C)CCCN(C)Cc1c[nH]c3ncnc(c13)N2 [Compound 119] |
| 0.501 | 1 | 0.0316 | 0.398 | 1 | 0.794 | 1 | CN1CCCN(C)C(=O)COc2cccc(c2)Nc2ncnc3[nH]cc(c23)C1 [Compound 120] |
| 3.98 | 7.94 | 0.2 | 6.31 | > 10 | > 10 | > 10 | CC(C)NC(=O)Nc1ccc2cc1OCC(=O)N(C)CCCN(C)Cc1c[nH]c3ncnc(c13)N2 [Compound 122] |
| 1.26 | 6.31 | 0.0251 | 5.01 | > 10 | > 10 | > 10 | CN1CCCN(C)C(=O)COc2cc(ccc2OCC(=O)NC2CC2)Nc2ncnc3[nH]cc(c23)C1 [Compound 125] |
| 2 | 7.94 | 0.501 | 3.98 | 10 | 6.31 | 7.94 | CN1CCCN(C)C(=O)COc2cc(ccc2OCCN2CCOCC2)Nc2ncnc3[nH]cc(c23)C1 [Compound 126] |
| 5.01 | > 10 | 0.0501 | > 10 | > 10 | > 10 | > 10 | CN1CCCN(C)C(=O)COc2cc(ccc2NC(=O)NCC2CC2)Nc2ncnc3[nH]cc(c23)C1 [Compound 127] |
| 0.398 | 1 | 0.0251 | 0.501 | 5.01 | 2.51 | 6.31 | COCCOCCOc1ccc2cc1OCC(=O)N(C)CCCN(C)Cc1c[nH]c3ncnc(c13)N2 [Compound 128] |
| 0.0631 | 0.2 | 0.0501 | 0.0794 | 1.26 | 0.794 | 1 | COc1ccc(NC(=O)COc2ccc3cc2OCC(=O)N(C)CCCN(C)Cc2c[nH]c4ncnc(c24)N3)cc1 [Compound 129] |

From patent US8318731B2, “Pyrrolopyrimidines” (Janssen Pharmaceutica NV, priority 2007, dated 2012)
